Measured values from PMC9856672, “SGC-CAMKK2-1: A Chemical Probe for CAMKK2” (Cells, 2023).

Legend:
[1] = biological target: T1, RIPK5 (Homo sapiens, UniProt Q6XUX3); test: DiscoverX KINOMEscan binding assay at 1 μM, RIPK5; conditions: RIPK5 (DSTYK); Compound Concentration 1000 nM; read-out: Percent Control
T1 construct: purchased Eurofins DiscoverX KINOMEscan
Description: (§1) Supplement cells-12-00287-s001.zip/File S2. KinomeScan data for the CAMKK2 probe and negative control.xlsx, sheet "SGC-CAMKK2-1" | column: Percent Control

[2] = biological target: T2, MST1 (Homo sapiens, UniProt Q13043); test: KINOMEscan 1 μM, MST1; format: binding; conditions: 1000 nM; Entrez STK4; read-out: Percent Control
T2 construct: purchased Eurofins DiscoverX KINOMEscan
T2 sequence (Q13043 whole entry): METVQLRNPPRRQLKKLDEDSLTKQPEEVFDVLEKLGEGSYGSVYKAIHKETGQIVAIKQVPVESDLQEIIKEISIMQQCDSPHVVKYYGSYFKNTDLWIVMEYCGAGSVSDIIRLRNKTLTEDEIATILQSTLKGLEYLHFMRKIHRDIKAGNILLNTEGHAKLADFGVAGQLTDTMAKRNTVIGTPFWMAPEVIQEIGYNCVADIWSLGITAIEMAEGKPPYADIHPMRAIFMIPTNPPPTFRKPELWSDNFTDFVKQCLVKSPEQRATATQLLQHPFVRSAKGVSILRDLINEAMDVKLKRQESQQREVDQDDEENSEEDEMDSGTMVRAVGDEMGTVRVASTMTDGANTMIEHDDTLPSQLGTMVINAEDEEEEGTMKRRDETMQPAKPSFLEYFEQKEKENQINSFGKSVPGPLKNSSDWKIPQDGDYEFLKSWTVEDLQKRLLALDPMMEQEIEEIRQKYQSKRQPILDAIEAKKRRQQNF
Description: as §1

[3] = biological target: T3, MST3 (Homo sapiens, UniProt Q9Y6E0); test: KINOMEscan 1 μM, MST3; format: binding; conditions: 1000 nM; Entrez STK24; read-out: Percent Control
T3 construct: purchased Eurofins DiscoverX KINOMEscan
T3 sequence (Q9Y6E0 whole entry): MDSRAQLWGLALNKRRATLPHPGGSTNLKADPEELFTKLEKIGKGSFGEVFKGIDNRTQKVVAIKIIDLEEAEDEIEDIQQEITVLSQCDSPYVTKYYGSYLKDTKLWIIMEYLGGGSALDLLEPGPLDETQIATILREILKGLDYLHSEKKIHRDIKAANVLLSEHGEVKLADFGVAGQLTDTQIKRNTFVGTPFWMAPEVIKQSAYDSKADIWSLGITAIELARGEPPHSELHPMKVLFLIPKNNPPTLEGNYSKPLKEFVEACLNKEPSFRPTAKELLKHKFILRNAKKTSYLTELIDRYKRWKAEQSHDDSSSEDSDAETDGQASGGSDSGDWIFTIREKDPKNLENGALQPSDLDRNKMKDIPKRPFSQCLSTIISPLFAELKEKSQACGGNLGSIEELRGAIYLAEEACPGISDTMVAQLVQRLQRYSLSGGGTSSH
Description: as §1

[4] = biological target: T4, RIOK1 (Homo sapiens, UniProt Q9BRS2); test: KINOMEscan at 1 μM, RIOK1; format: binding; conditions: 1000 nM, read-out: Percent Control
T4 construct: purchased Eurofins DiscoverX KINOMEscan
T4 sequence (Q9BRS2 whole entry): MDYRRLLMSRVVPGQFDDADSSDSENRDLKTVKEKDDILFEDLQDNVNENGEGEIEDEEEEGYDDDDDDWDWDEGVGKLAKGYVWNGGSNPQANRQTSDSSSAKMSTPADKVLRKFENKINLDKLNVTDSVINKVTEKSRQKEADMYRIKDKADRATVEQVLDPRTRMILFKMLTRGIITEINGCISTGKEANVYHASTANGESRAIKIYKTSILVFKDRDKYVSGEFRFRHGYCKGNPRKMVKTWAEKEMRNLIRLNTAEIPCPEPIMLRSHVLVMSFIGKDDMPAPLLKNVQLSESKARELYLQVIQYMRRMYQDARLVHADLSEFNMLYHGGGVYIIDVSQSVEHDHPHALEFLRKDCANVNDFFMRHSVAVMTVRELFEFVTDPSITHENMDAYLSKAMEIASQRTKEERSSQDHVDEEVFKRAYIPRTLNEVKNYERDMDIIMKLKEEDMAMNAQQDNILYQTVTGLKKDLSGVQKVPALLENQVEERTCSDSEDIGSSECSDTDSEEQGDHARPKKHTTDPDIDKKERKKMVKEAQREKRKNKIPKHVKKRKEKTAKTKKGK
Description: Supplement cells-12-00287-s001.zip/File S2. KinomeScan data for the CAMKK2 probe and negative control.xlsx, sheet "SGC-CAMKK2-1N" | column: Percent Control

T1 sequence (Q6XUX3 whole entry): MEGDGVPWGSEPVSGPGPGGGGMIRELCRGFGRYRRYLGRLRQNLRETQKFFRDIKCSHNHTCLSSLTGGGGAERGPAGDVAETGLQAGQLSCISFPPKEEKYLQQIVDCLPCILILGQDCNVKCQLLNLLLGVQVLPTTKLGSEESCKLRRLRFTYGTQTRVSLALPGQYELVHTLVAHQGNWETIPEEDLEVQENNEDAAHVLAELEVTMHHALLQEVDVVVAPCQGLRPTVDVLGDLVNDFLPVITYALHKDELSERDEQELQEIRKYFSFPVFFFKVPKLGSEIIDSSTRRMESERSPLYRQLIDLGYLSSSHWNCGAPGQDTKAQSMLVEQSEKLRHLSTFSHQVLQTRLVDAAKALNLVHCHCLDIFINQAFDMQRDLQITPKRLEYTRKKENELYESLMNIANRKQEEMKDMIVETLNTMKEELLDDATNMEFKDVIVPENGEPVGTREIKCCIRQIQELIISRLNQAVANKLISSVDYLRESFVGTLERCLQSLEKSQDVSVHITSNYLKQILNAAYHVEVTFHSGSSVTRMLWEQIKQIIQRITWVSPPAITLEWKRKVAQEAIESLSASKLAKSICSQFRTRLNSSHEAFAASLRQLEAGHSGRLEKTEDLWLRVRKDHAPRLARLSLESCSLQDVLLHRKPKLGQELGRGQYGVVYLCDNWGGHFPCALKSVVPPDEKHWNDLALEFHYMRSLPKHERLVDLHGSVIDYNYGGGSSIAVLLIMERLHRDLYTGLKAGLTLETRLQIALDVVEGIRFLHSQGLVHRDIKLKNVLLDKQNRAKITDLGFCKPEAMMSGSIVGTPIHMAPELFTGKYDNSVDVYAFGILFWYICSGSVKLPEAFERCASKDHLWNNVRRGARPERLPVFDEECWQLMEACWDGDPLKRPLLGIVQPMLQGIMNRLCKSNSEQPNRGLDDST

Compound | remaining binding at 1 µM [1] | remaining binding at 1 µM [2] | remaining binding at 1 µM [3] | remaining binding at 1 µM [4]
Cc1cccc(-c2cnc3occ(-c4ccc(C(=O)O)c(C5CCCC5)c4)c3c2)c1 [SGC-CAMKK2-1 (YL-36)] | 100% | 100% | 100% | 
O=C(O)c1ccc(-c2coc3ncc(-c4ccccc4)cc23)cc1Cl [SGC-CAMKK2-1N (UNC-YL-83)] |  |  |  | 91%
